Data on twelve compounds can be found in patent US8907092B2, “Inhibitors of IAP” (Genentech, Inc., priority 2007, dated 2014).

Structures are written as SMILES. *1 amine or outer side, *2 acyl side, *3 side chain or, on linkers, in order; H or OH if unused. Where a SMILES comes first, the peptide text is derived from it. Bridges are numbered along the chain shown (N, C = ends). Roman numbers before positions name the chains, in order. [ ]: non-standard residue; d: D form. NH(CH2)3(OCH2CH2)2O(CH2)3NH = C(CN[*:1])COCCOCCOCCCN[*:2]; Dip = N[C@H](C(=O)O)C(c1ccccc1)c1ccccc1; Chg = N[C@H](C(=O)O)C1CCCCC1; NMeA = CN[C@@H](C)C(=O)O; dNMeA = CN[C@H](C)C(=O)O

In this experiment the target is T1, MLXBIR3SG (Homo sapiens, UniProt Q96CA5, S150G).
T1 sequence (Q96CA5 with tags, fused parts or gaps S150G): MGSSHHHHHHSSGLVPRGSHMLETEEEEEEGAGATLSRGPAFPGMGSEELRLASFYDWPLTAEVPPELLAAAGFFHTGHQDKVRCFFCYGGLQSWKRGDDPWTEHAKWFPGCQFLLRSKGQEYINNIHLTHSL
In words: Fluorescence Polarization Peptide Binding Assay. The settings on record: competition with 5 nM AVP-diPhe-FAM probe, MLXBIR3SG at 30 nM. On the procedure: In the following experiments was used a chimeric BIR domain referred to as MLXBIR3SG in which 11 of 110 residues correspond to those found in XIAP-BIR3, while the remainder correspond to ML-IAP-BIR. […] The improved caspase-9 inhibition of the chimeric BIR domain MLXBIR3SG has been correlated with increased inhibition of doxorubicin-induced apoptosis when transfected into MCF7 cells.
Polarization experiments were performed on an Analyst HT 96-384 (Molecular Devices Corp.) according to the procedure of Keating, S. M., Marsters, J, Beresini, M., Ladner, C., Zioncheck, K., Clark, K., Arellano, F., and Bodary., S. (2000) in Proceedings of SPIE: In Vitro Diagnostic Instrumentation (Cohn, G. E., Ed.) pp 128-137, Bellingham, Wash. Samples for fluorescence polarization affinity measurements were prepared by addition of 1:2 serial dilutions starting at a final concentration of 5 μM of MLXBIR3SG in polarization buffer (50 mM Tris [pH 7.2], 120 mM NaCl, 1% bovine globulins 5 mM DTT and 0.05% octylglucoside) to 5-carboxyflourescein-conjugated AVPdi-Phe-NH2 (AVP-diPhe-FAM) at 5 nM final concentration.
The reactions were read after an incubation time of 10 minutes at room temperature with standard cut-off filters for the fluorescein fluorophore (λex=485 nm; λem=530 nm) in 96-well black HE96 plates (Molecular Devices Corp.). Fluorescence values were plotted as a function of the protein concentration, and the IC50s were obtained by fitting the data to a 4-parameter equation using Kaleidograph software (Synergy software, Reading, Pa.). Competition experiments were performed by addition of the MLXBIR3SG at 30 nM to wells containing 5 nM of the AVP-diPhe-FAM probe as well as 1:3 serial dilutions of antagonist compounds starting at a concentration of 300 μM in the polarization buffer. Samples were read after a 10-minute incubation. Fluorescence polarization values were plotted as a function of the antagonist concentration, and the IC50 values were obtained by fitting the data to a 4-parameter equation using Kaleidograph software (Synergy software, Reading, Pa.) Inhibition constants (Ki) for the antagonists were determined from the IC50 values.
Take `CN[C@@H](C)C(=O)N[C@H](C(=O)N1CCC[C@H]1C(=O)N[C@H](C(=O)NCCCOCCOCCOCCCNC(=O)[C@@H](NC(=O)[C@@H]1CCCN1C(=O)[C@@H](NC(=O)[C@@H](C)NC)C1CCCCC1)C(c1ccccc1)c1ccccc1)C(c1ccccc1)c1ccccc1)C1CCCCC1` [compound 10] (I: H-[NMeA][Chg]P[Dip] / II: H-[dNMeA][Chg]P[Dip]; linker I:C-II:C via NH(CH2)3(OCH2CH2)2O(CH2)3NH): the IC50 is 1.32 µM.

On to `CN[C@@H](C)C(=O)N[C@H](C(=O)N1CCC[C@H]1C(=O)Nc1sc(C(=O)NCC(C)(C)CNC(=O)c2nc(-c3ccccc3)c(NC(=O)[C@@H]3CCCN3C(=O)[C@@H](NC(=O)[C@H](C)NC)C3CCCCC3)s2)nc1-c1ccccc1)C1CCCCC1` [compound 23], for which the IC50 is 0.679 µM.

As for `CN[C@@H](C)C(=O)N[C@H](C(=O)N1CCC[C@H]1C(=O)Nc1sc(C(=O)NCC(O)CNC(=O)c2nc(-c3ccccc3)c(NC(=O)[C@@H]3CCCN3C(=O)[C@@H](NC(=O)[C@H](C)NC)C3CCCCC3)s2)nc1-c1ccccc1)C1CCCCC1` [compound 22], the IC50 stood at 0.378 µM.

Consider `CN[C@@H](C)C(=O)N[C@H](C(=O)N1CCC[C@H]1C(=O)Nc1sc(-c2ccccn2)nc1-c1ccccc1)c1ccc(OCC#CC#CCOc2ccc([C@H](NC(=O)[C@H](C)NC)C(=O)N3CCC[C@H]3C(=O)Nc3sc(-c4nccn4C)nc3-c3ccccc3)cc2)cc1` [compound 13], for which the IC50 came out at 3.82 µM.

Turning to `CN[C@@H](C)C(=O)N[C@H](C(=O)N1CC(OCc2ccc(C#CC#Cc3ccc(CO[C@H]4C[C@@H](C(=O)Nc5snnc5-c5ccccc5)N(C(=O)[C@@H](NC(=O)[C@H](C)NC)C5CCCCC5)C4)cc3)cc2)C[C@H]1C(=O)Nc1snnc1-c1ccccc1)C1CCCCC1` (stereo partly drawn) [compound 4], the IC50 is 2.41 µM.

For the compound `CN[C@@H](C)C(=O)N[C@H](C(=O)N1CCC[C@H]1C(=O)Nc1sc(C(=O)NCCCCCCCCCCCNC(=O)c2nc(-c3ccccc3)c(NC(=O)[C@@H]3CCCN3C(=O)[C@@H](NC(=O)[C@H](C)NC)C3CCCCC3)s2)nc1-c1ccccc1)C1CCCCC1` [compound 15], the IC50 came to 3.83 µM.

`CN[C@@H](C)C(=O)N[C@H](C(=O)N1CCC[C@H]1C(=O)Nc1sc(-c2nccs2)nc1-c1ccccc1)c1ccc(OCC#CC#CCOc2ccc([C@H](NC(=O)[C@H](C)N)C(=O)N3CCC[C@H]3C(=O)Nc3sc(-c4nccs4)nc3-c3ccccc3)cc2)cc1` [compound 11]: the IC50 turned out to be 1.03 µM.

With `CN[C@@H](C)C(=O)N[C@H](C(=O)N1CCC[C@H]1C(=O)Nc1sc(-c2nccn2C)nc1-c1ccccc1)c1ccc(OCC#CC#CCOc2ccc([C@H](NC(=O)[C@H](C)NC)C(=O)N3CCC[C@H]3C(=O)Nc3sc(-c4nccn4C)nc3-c3ccccc3)cc2)cc1` [compound 12], the IC50 turned out to be 1.1 µM.

In the case of `CN[C@@H](C)C(=O)N[C@H](C(=O)N1CCC[C@H]1C(=O)Nc1sc(C(=O)NCc2ccc(CNC(=O)c3nc(-c4ccccc4)c(NC(=O)C4CCCN4C(=O)[C@H](NC(=O)[C@@H](C)NC)C4CCCCC4)s3)cc2)nc1-c1ccccc1)C1CCCCC1` (stereo partly drawn) [compound 24], the IC50 stood at 1.38 µM.

As to `CN[C@@H](C)C(=O)N[C@H](C(=O)N1CCC[C@H]1C(=O)Nc1sc(-c2ccccn2)nc1-c1ccccc1)c1ccc(OCC#CC#CCOc2ccc([C@H](NC(=O)[C@H](C)NC)C(=O)N3CCC[C@H]3C(=O)Nc3sc(-c4ccccn4)nc3-c3ccccc3)cc2)cc1` [compound 14], the IC50 came to 2.35 µM.

`CN[C@@H](C)C(=O)N[C@H](C(=O)C1CCCN1c1nc2c(-c3ccccc3)nccc2s1)C1CCN(C(=O)NCCCCCCNC(=O)N2CCC([C@H](NC(=O)[C@H](C)NC)C(=O)N3CCC[C@H]3c3nc4c(-c5ccccc5)nccc4s3)CC2)CC1` (stereo partly drawn) [compound 17]: the IC50 amounted to 0.168 µM.

Turning to `CN[C@@H](C)C(=O)N[C@H](C(=O)N1CCC[C@H]1C(=O)Nc1sc(C(=O)NCCOCCOCCNC(=O)c2nc(-c3ccccc3)c(NC(=O)[C@@H]3CCCN3C(=O)[C@@H](NC(=O)[C@H](C)NC)C3CCCCC3)s2)nc1-c1ccccc1)C1CCCCC1` [compound 16], the IC50 is 0.234 µM.
